Experimental findings from patent US20240294489A1 (Captor Therapeutics S.A., priority 2020, published 2024) are described below.

Common to all, as to format: cell-based
Test [1] deals with Kelly cells. Description: Cell viability CTG assay, Kelly. To be noted: 72 h, 0.001-50 μM, read-out: Kelly Geomean absolute IC50 by molecule, 72 H. As for the experimental part:
The effect of various compounds of the invention and various reference compounds on cell viability in various cell lines was investigated, using the Cell Viability—CTG Assay Protocol below. Hep3B, Kelly, H929, KG-1 and SNU-398 cells were maintained in respective cell medium (see Table 8, below). The cells were seeded on the 96-well or 384-white plates, and the compounds to be tested were added at the desired concentration range. Compounds are diluted in DMSO, and the DMSO concentration is kept constant at 0.25% v/v across the assay plate. After 72 h incubation (37° C., 5% CO2), CellTiter-Glo® Reagent (Promega/G7570) was added to the wells. Plates are shaken for 4 minutes and incubated for 8 minutes in the dark prior to reading luminescence (LU) by using the CLARIOstar Multimode Plate Reader. The signal is proportional to the amount of ATP, which is directly proportional to the number of cells present in the culture.
Luminescence (RLU) values were normalized to DMSO control. Dose response is assessed by non-linear regression and IC50 calculation with the average of technical duplicate of percentage inhibition. IC50 values are reported as absolute IC50 values, being the concentration of test compound at the intersection of the concentration-response curves with T/C=50%. For calculation of mean IC50 values the geometric mean is used.

Test [2] relates to MOLT-4. Description: Cell viability, additional cell lines (CellTiter-Glo), MOLT-4. As to conditions: Homo sapiens, MOLT-4, 72 h. Here is the method:
(§1) Tumor cells are grown at 37° C. in a humidified atmosphere with 5% CO2 in RPMI 1640 medium, supplemented with 10% (v/v) fetal calf serum and 50 μg/ml gentamicin for up to 20 passages, and are passaged once or twice weekly.
(§2) Cells are harvested from exponential phase cultures, counted and plated in 96 well flat-bottom microtiter plates at a cell density depending on the cell line's growth rate (4,000-20,000 cells/well depending on the cell line's growth rate, up to 60,000 for hematological cancer cell lines) in RPMI 1640 medium supplemented with 10% (v/v) fetal calf serum and 50 μg/ml gentamicin (140 μl/well). Cultures are incubated at 37° C. and 5% CO2 in a humidified atmosphere. After 24 h, 10 μl of test compounds or control medium are added and left on the cells for another 72 h. Compounds are serially diluted in DMSO, transferred in cell culture medium, and added to the assay plates by using a Tecan Freedom EVO 200 robotic platform. The DMSO concentration is kept constant at 0.3% v/v across the assay plate. Viability of cells is quantified by the CellTiter-Glo® cell viability assay (Promega G8462). After incubation of cells, 100 μl of CellTiter-Glo® One Solution Assay reagent are added to each well. Plates are shaken for 2 minutes to induce cell lysis and incubated for 20 minutes prior to reading luminescence (LU) by using the EnVision® Xcite multilabel plate reader (Perkin Elmer). […]
A general note: Cellular ATP, detected with luciferase, serves as a proxy for viable cell number.

The subject of test [3] is TMD8. Description: Cell viability, additional cell lines (CellTiter-Glo), TMD8. As to conditions: Homo sapiens, TMD8, 72 h; read-out: Absolute IC50. Here is the method:
as §1, §2

Regarding `NCc1ccc2c(c1)CN(C1CCC(=O)NC1=O)C2=O` (stereo not shown) [Compound 1, 3-(5-(aminomethyl)-1-oxoisoindolin-2-yl)piperidine-2,6-dione], the values for the 50% inhibitory concentration (IC50) in test [1], in test [2] (read-out: Absolute IC50) and in test [3] were 0.1 to 1 µM, at least 30 µM and over 30 µM, respectively. The viability at 9.5 µM in test [2] (9.5 μM, read-out: Test/Control viability at 9.5 μM) was at most 60%.

What is called IC50 is the concentration needed to halve the response being measured.
